In patent publication US9040534B2, “[1,2,4]triazolo[4,3-a]pyrazines as P2X7 modulators” (Janssen Pharmaceutica NV, priority 2013, dated 2015):

Columns and labels:
P2X7 [1] = target: T1, P2X7 (Homo sapiens (Human), UniProt Q99572); test: P2X7 antagonism in human whole blood (LPS + Bz-ATP induced IL-1β release, ELISA); type: cell-based; settings: 1 mM Bz-ATP
Experimental: Human blood was collected using a blood donor program. PBMCs were isolated from blood using a Ficoll density gradient technique. Briefly, blood was laid on Ficoll solution and centrifuged at RT for 20 minutes at 2000 rpm. The buffy layer (between red blood cells and plasma) was carefully collected by aspiration, washed with PBS and centrifuged again at 1500 rpm for 15 minutes. The resulting cell pellet was washed and plated on 96 well-plates for experiments. […] Lipopolysaccharide (LPS) (30 ng/ml) was added to each well and incubated for 1 hour. Test compounds were then added and incubated for 30 minutes. The P2X7 agonist, 2′(3′)-O-(4-benzoylbenzoyl) adenosine 5′-triphosphate (Bz-ATP) was then added at a final concentration of 0.5 mM (PBMC) or 1 mM (blood). Cells were incubated for an additional 1.5 hours. At that point, supernatant was collected and stored for IL-1β assay using manufacturer's protocol for enzyme-linked immunosorbent assay (ELISA). Data was expressed as percent control, where control is defined as the difference in IL-1β release in LPS+Bz-ATP samples and LPS only samples. Data was plotted as response (% control) versus concentration to generate IC50 values.

P2X7 [2] = target: T1, P2X7; test: Ca2+ flux (FLIPR) in 1321N1 cells expressing recombinant human P2X7 channel; type: cell-based; settings: 250 μM BzATP
Experimental: (§1) (A) Ca^2+ Flux: 1321N1 cells expressing the recombinant human, rat or mouse P2X7 channel was cultured in HyQ DME/(HyClone/Dulbecco's Modified Eagle Medium) high glucose supplemented with 10% Fetal Bovine Serum (FBS) and appropriate selection marker. Cells were seeded at a density of 25000 cells/well (96-well clear bottom black walled plates) in 100 μl volume/well. On the day of the experiment, cell plates were washed with assay buffer, containing (in mM): 130 NaCl, 2 KCl, 1 CaCl2, 1 MgCl2, 10 HEPES, 5 glucose; pH 7.40 and 300 mOs. After the wash, cells were loaded with the Calcium-4 dye (Molecular Device) and incubated in the dark for 60 minutes. Test compounds were prepared at 250× the test concentration in neat DMSO. Intermediate 96-well compound plates were prepared by transferring 1.2 μL of the compound into 300 μL of assay buffer. A further 3× dilution occurred when transferring 50 μL/well of the compound plate to 100 μL/well in the cell plate. Cells were incubated with test compounds and dye for 30 minutes. […] The fluorescence change was measured 180 seconds after adding the agonist.

P2X7 [3] = target: T1, P2X7; test: Radioligand binding, human P2X7-1321N1 cell membranes, tritiated A-804598 tracer; settings: 1 hour at 4° C.
Experimental: (B) Radioligand binding: human or rat P2X7-1321N1 cells were collected and frozen @ −80° C. On the day of the experiment, cell membrane preparations were made according to standard published methods. […] The compound can be prepared as described in the literature. […] The assay was terminated by filtration (GF/B filters pre-soaked with 0.3% PEI) and washed with washing buffer (Tris-HCl 50 mM). The IC50 generated in the binding assay was corrected for tracer concentration and affinity of the tracer to derive at the affinity (Ki) of the test compounds.

rat P2X7 = rat P2X7 (Rattus norvegicus (Rat), UniProt Q64663); test: Ca2+ flux (FLIPR) in 1321N1 cells expressing recombinant rat P2X7 channel; type: cell-based; settings: 250 μM BzATP
Chain of rat P2X7 (Q64663 whole entry): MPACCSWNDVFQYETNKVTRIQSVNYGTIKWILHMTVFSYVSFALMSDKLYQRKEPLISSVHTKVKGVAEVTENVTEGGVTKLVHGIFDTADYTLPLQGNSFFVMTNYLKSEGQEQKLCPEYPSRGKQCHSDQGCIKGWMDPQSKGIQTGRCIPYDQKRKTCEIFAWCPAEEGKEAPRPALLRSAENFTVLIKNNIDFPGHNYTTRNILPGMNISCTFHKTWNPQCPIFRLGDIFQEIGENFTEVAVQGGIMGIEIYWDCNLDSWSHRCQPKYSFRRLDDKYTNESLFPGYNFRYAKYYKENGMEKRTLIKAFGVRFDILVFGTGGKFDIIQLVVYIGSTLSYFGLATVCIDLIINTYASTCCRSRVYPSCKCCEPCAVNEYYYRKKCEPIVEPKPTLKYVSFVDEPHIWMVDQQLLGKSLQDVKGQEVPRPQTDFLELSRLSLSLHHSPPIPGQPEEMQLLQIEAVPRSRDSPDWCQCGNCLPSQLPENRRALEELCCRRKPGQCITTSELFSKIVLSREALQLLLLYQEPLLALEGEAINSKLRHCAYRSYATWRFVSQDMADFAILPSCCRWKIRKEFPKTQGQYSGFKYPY
Experimental: as §1

T1 sequence (Q99572 whole entry): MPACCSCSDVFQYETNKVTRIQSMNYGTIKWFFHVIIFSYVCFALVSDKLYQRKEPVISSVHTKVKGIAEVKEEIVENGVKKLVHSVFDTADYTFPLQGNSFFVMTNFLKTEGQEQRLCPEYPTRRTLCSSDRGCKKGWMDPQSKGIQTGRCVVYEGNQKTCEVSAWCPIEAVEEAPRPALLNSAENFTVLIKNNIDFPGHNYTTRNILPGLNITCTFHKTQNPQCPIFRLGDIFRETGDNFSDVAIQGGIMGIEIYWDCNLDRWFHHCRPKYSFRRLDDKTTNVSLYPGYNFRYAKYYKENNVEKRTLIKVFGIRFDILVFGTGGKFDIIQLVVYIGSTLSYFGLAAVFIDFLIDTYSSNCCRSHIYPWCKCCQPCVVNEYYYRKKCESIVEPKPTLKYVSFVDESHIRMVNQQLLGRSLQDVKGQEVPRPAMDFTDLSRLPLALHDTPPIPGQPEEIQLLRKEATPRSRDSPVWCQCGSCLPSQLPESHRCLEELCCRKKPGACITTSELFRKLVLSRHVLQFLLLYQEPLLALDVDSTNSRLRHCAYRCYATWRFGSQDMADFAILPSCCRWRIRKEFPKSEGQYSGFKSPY

Row | Compound | IC50 (P2X7 [1]) | IC50 (P2X7 [2]) | Ki (P2X7 [3]) | IC50 (rat P2X7)
1 | O=C1c2nnc(-c3ccccn3)n2CCN1Cc1cccc(C(F)(F)F)c1Cl [Example 9, 7-[2-Chloro-3-(trifluoromethyl)benzyl]-3-pyridin-2-yl-6,7-dihydro[1,2,4]triazolo[4,3-a]pyrazin-8(5H)-one] | > 10000 nM | 50.2 nM | 10 nM | > 10000 nM
2 | O=C1c2nnc(-c3ccccn3)n2CCN1Cc1cccc(Cl)c1Cl [Example 8, 7-(2,3-Dichlorobenzyl)-3-pyridin-2-yl-6,7-dihydro[1,2,4]triazolo[4,3-a]pyrazin-8(5H)-one] | 10000 nM | 147 nM | 20 nM | > 10000 nM
